The source of these data is US8278304B2, “Substituted 4-hydroxypyrimidine-5-carboxamides” (Merck Sharp & Dohme Corp., priority 2008, dated 2012).

Structures can show the parent of a compound that is named as a salt.

T1 sequence (Q9GZT9 whole entry): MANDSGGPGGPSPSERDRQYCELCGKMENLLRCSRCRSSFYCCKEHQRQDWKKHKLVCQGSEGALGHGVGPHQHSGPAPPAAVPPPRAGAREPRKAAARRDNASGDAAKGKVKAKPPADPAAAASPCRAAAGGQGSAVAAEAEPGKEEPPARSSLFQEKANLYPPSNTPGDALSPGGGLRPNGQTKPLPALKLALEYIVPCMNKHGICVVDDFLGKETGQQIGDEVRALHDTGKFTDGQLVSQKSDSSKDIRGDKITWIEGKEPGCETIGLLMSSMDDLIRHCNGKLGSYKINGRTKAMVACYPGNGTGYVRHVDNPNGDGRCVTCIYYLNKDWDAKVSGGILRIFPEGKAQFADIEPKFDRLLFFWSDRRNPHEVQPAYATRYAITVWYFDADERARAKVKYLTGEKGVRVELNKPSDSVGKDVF

The test addresses T1, PHD2 (Homo sapiens, UniProt Q9GZT9).
T1 construct: FLAG-tagged full length PHD2 expressed in and purified from baculovirus-infected Sf9 cells; FLAG; made in house; host or cells: baculovirus-infected Sf9 cells
Nature of the test: PHD2 / HIF-1α peptide hydroxylation assay, time resolved fluorescence (VHL complex detection). Type of test: biochemical. As to conditions: FLAG-tagged full length PHD2; 0.2 μM 2-oxoglutarate, 0.5 μM HIF-1α peptide; read-out: PHD2 Activity (PHD2 binding activity expressed as IC50 (nM)). The gist of the method: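 Sf9-expressed FLAG-tagged full-length PHD2 (0.15 μg/ml) preincubated with compound 30 min at room temperature in Tris pH 7.4 buffer with 10 μM ferrous sulfate, 1 mM ascorbate and catalase. Reaction started with 0.2 μM 2-oxoglutarate and 0.5 μM biotinylated HIF-1α peptide (final); hydroxylation detected by time-resolved fluorescence via VHL complex binding.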
`CC(O)c1ccc(C(NC(=O)c2cnc(-c3cccnn3)nc2O)c2ccc(Cl)cc2)cc1` (stereo not drawn) [Example 179, N-{(4-chlorophenyl)[4-(1-hydroxyethyl)phenyl]methyl}-4-hydroxy-2-(pyridazin-3-yl)pyrimidine-5-carboxamide]: the IC50 (as a rule, the point on the concentration scale where inhibition reaches its midpoint) was no more than 10 nM. For the molecule `C[C@@H](NC(=O)[C@H](NC(=O)c1cnc(-n2cccn2)nc1O)c1ccccc1)c1ccccc1` [Example 180, 4-Hydroxy-N-((1R)-2-oxo-1-phenyl-2-{[(1R)-1-phenylethyl]amino}ethyl)-2-(1H-pyrazol-1-yl)pyrimidine-5-carboxamide], the IC50 was in the range of 10 to 100 nM. `COCc1ccc(C(NC(=O)c2cnc(-c3cccnn3)nc2O)c2ccc(COC)cc2)cc1` [Example 184, N-{bis[4-(methoxymethyl)phenyl]methyl}-4-hydroxy-2-pyridazin-3-ylpyrimidine-5-carboxamide]: the IC50 is no more than 10 nM. Consider `C[C@H](NC(=O)c1cnc(-c2cccnn2)nc1O)c1ccc(-c2cccc3cnccc23)cc1` [Example 185, 4-hydroxy-N-[(1S)-1-(4-isoquinolin-5-ylphenyl)ethyl]-2-pyridazin-3-ylpyrimidine-5-carboxamide], for which the IC50 was no more than 10 nM. Turning to `C[C@H](NC(=O)c1cnc(-c2cccnn2)nc1O)c1ccc(-c2ccc(F)nc2)cc1` [Example 186, N-{(1S)-1-[4-(6-fluoropyridin-3-yl)phenyl]ethyl}-4-hydroxy-2-pyridazin-3-ylpyrimidine-5-carboxamide trifluoroacetate (salt)], the concentration for half-maximal inhibition (IC50) is no more than 10 nM. As for `C[C@H](NC(=O)c1cnc(-c2cccnn2)nc1O)c1ccc(-c2cccnc2)cc1` [Example 187, 4-hydroxy-2-pyridazin-3-yl-N-[(1S)-1-(4-pyridin-3-ylphenyl)ethyl]pyrimidine-5-carboxamide trifluoroacetate (salt)], the IC50 was no more than 10 nM. Turning to `CC(C)(NC(=O)c1cnc(-n2cccn2)nc1O)C(=O)O` [Example 188, N-{[4-hydroxy-2-(1H-pyrazol-1-yl)pyrimidin-5-yl]carbonyl}-2-methylalanine], the IC50 lay in the range of 100 to 1000 nM. As to `CC(C)(NC(=O)c1cnc(-n2cccn2)nc1O)C(=O)N1CCc2ccccc21` [Example 189, N-[1-(2,3-dihydro-1H-indol-1-yl)-2-methyl-1-oxopropan-2-yl]-4-hydroxy-2-(1H-pyrazol-1-yl)pyrimidine-5-carboxamide], the half-inhibitory concentration (IC50) was no more than 10 nM. The same measure for `COc1ccc(C(NC(=O)c2cnc(-c3cccnn3)nc2O)c2ccc(OC)nc2)cn1` [Example 192, N-[bis(6-methoxypyridin-3-yl)methyl]-4-hydroxy-2-(pyridazin-3-yl)pyrimidine-5-carboxamide]: no more than 10 nM.
